Data published in patent US6015820A, “4-Aryl-thio-pyridin-2(1H)-ones, medicines containing them and their uses in the treatment of illnesses linked to HIV” (priority 1995, dated 2000).
pIC50: −log10 of the molar value. Like-named read-outs stand apart in the source and are kept apart here.

Experiments:
[1] = molecular target: T1, endogenous IT of isolated virion (Human immunodeficiency virus type 1 group M subtype B, UniProt P03367); test: inhibition of the endogenous IT on the isolated virion; type: biochemical; details: for IT activity in cpm: Table 7, 10 μM
T1 construct: endogenous in cells; host or cells: isolated HIV-1 virions
Procedure: After having been incubated with the various inhibitors, the viral supernatants (200 μl) were deposited in the filtering part of a VectaSpin tube (WHATMAN) fitted with an ANAPORE membrane of porosity 0.02 μm. For 10 minutes they were subjected to centrifugation, the acceleration of which reached 6000 g at the filtering membrane. The viral residuums thereby obtained (10-15 μl ) were washed 3 times under the same conditions with 500 μl of RPMI then restored to their initial volumes with RPMI containing 10% of CFS.

[2] = tested on: HIV-1 4200 type E (primary isolate); test: anti-HIV-1 activity, HIV-1 4200 type E (primary isolate)/PBMC; type: cell-based; details: Human immunodeficiency virus 1, Table 4
Procedure: (§1) The virus production was measured by quantifying the activity of the inverse transcriptase associated with viral particles released into the culture supernatant. In short, cells were infected with 100 TCID50 for 30 minutes; after adsorption of the virus, unbound particles were removed by two washings and the cells were cultivated in the presence of different concentrations of the compounds tested for 5 days before determining the viral production. The concentration inhibiting 50% of the viral multiplication (IC50) came from the computer plot of the median effect of the dose effect results (Chou et al. Elsevier Science Publishers, Cambridge U.K. (1985), 19-28).
(§2) Thirty two compounds according to the invention were studied for their anti-HIV-1 biological activity. […] This compound was then tested with other colonies and other cell lines (Table 4).

HIV-1 LAI = test: anti-HIV-1 activity: replication of HIV-1 LAI on CEM-SS cells; type: cell-based
Method in brief: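 CEM-SS cells were infected with 100 TCID50 virus for 30 min, washed, then cultured 5 days with test compound at varied concentrations. Virus production was measured as reverse transcriptase activity in culture supernatant, and IC50 was derived by median-effect dose-effect analysis.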

CEM-SS cells = test: cytotoxicity on non-infected cells (MTT test); type: cell-based; details: Table 3; non-infected cells, MTT, 5 days
Method in brief: (§3)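 Non-infected cells incubated 5 days with compounds; viability by MTT reduction to formazan via mitochondrial dehydrogenases, read at OD540. CC50 is the concentration halving OD540.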

[3] = cytotoxicity on non-infected cells (MTT test); type: cell-based; details: human
Method in brief: as §3

HIV-2 D194 = test: anti-HIV-2 activity, HIV-2 D194/PBMC; type: cell-based; details: Human immunodeficiency virus 2, Table 4
Procedure: as §1, §2

HIV-1 IIIB = test: anti-HIV-1 activity, HIV-1 IIIB/PBMC; type: cell-based; details: Human immunodeficiency virus 1, Table 4
Procedure: as §1, §2

[4] = molecular target: inverse transcriptase of HIV-1 (HIV-1 M:B_ARV2/SF2, UniProt P03369); test: inverse transcription with HIV-1 RNA as natural matrix (complementary DNA, gel); type: biochemical; details: FIG. 10; compound 7c 40-400 nM
Procedure: FIG. 10 illustrates the dose effect of compound 7c on the inhibition of the inverse transcriptase of HIV-1. The expected complementary DNA, 147 nucleotides long, is shown to the left of the gel (well 1). Wells 2 to 5 correspond to decreasing concentrations of compound 7c (well 2: 400 nM, well 3: 300 nM: well 4: 100 nM and well 5: 40 nM).
The pmCG6 plasmid containing the nucleotide fragment 1-4005 of the HIV-1 (pmal) in psP64, under the control of the promoter of the T7 bacteriophage was provided by Dr. J. L. Darlix. A strain of E.coli HB 101 (1035) recA was used for the amplification of the plasmid. After digestion of this clone with Hinc II and transcription in vitro by using the RNA T7 polymerase, RNAs were obtained from the +50 position of the pmal sequence. The transcription was carried out in vitro and the inverse transcription in the manner described by B. Bordier et al. (1992 Nucleic Acids Res. 20, 5999-6006).
All the compounds were dissolved in dimethyl#sulphoxide (DMSO). The test samples were prepared in the presence of the same final concentration of DMSO. IC50 is the concentration required to inhibit the activity of the IT of the recombinant HIV-1 by 50%.

## CCc1c(C)[nH]c(=O)c([N+](=O)[O-])c1Sc1cc(C)cc(C)c1 [Compound 7c, 5-ethyl-6-methyl-3-nitro-4-(3', 5'-dimethylphenyl)thio-pyridin-2(1H)-one]
[1]; first (unheaded) value column, isolated virion control 813
  IT activity in cpm: 32 cpm
[1]; second (unheaded) value column, isolated virion control 809
  IT activity in cpm: 852 cpm
[1]; isolated virions incubated 3 hours
  penetration of envelope and capsid and blocking of IT: appeared to penetrate the envelope and the viral capsid to fix itself onto the IT and to block its activity
[2]
  pIC50: > 10.00
HIV-1 LAI; Human immunodeficiency virus 1, 120 h, Table 2, HIV-1 LAI, CEM-SS cells, 5 days, read-out: IC50, anti-HIV-1 activity
  pIC50: 8.22
HIV-1 LAI; Human immunodeficiency virus 1, CEM-SS, Table 4, HIV-1 (LA1)/CEMSS, read-out: IC50
  pIC50: > 9.40
HIV-1 LAI; Table 2, HIV-1 LAI, CEM-SS cells
  SI (selectivity index): > 1666
CEM-SS cells
  CC50: > 10000 nM
[3]; cem-ss cells, Table 4, line HIV-1 (LA1)/CEMSS
  CC50 at 120 h: > 10000 nM
[3]; Table 2, non-infected CEM-SS cells, MTT, 5 days
  CC50 at 120 h: > 10000 nM
HIV-2 D194
  pIC50: < 5.00
HIV-1 IIIB
  pIC50: > 10.52
[4]
  inhibition with RNA from HIV-1 as natural matrix: strong inhibition
